Experimental data from PMC8317467 (FASEB journal : official publication of the Federation of …, 2020).
Changes are numbered by the printed parent chain. “Also recorded” adds a separate entry of the source.

Legend:
F439W-ABCG2 [1] = target: T1, F439W-ABCG2 (Homo sapiens, UniProt Q9UNQ0, F439W); assay: Transport assay; format: cell-based; conditions: 0.5 μM of Hoechst 33342, ± 10 μM of Lapatinib, 120 min
T1 sequence (Q9UNQ0 1-655 F439W): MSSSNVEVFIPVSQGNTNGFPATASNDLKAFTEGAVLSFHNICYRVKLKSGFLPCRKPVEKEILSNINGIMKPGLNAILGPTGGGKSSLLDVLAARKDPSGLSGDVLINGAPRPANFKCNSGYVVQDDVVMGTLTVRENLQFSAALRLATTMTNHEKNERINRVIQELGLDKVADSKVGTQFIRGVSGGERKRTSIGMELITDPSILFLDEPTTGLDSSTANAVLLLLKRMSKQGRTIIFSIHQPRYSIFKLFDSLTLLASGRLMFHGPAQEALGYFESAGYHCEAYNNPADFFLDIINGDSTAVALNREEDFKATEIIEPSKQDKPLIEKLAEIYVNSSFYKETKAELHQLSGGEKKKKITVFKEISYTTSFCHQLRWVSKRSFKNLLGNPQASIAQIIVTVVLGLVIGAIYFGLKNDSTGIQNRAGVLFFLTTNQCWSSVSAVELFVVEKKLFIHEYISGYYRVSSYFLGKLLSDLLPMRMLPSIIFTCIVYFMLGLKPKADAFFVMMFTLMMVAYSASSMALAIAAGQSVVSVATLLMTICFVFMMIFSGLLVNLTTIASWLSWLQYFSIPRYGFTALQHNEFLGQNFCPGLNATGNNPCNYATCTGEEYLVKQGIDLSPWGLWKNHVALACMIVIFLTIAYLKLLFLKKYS

F439W-ABCG2 [2] = target: T1, F439W-ABCG2; assay: Membrane thermal shift, MEF membrane vesicles, F439W; format: binding; conditions: 10 μM of Hoechst 33342, 60 min at 37°C
F439A-ABCG2 = target: T2, F439A-ABCG2 (Homo sapiens, UniProt Q9UNQ0, F439A); assay: Transport assay; format: cell-based; conditions: 0.5 μM substrate
T2 sequence (Q9UNQ0 1-655 F439A): T1 sequence (Q9UNQ0 1-655 F439W) with W439A

WT-ABCG2 = target: T3, WT-ABCG2 (Homo sapiens, UniProt Q9UNQ0); assay: Membrane thermal shift, MEF membrane vesicles, WT-ABCG2; format: binding; conditions: 10 μM of ligand, 60 min at 37°C, heated 3 min at 65°C
T3 sequence (Q9UNQ0 1-655): T1 sequence (Q9UNQ0 1-655 F439W) with W439F

F439Y-ABCG2 [3] = target: T4, F439Y-ABCG2 (Homo sapiens, UniProt Q9UNQ0, F439Y); assay: Transport assay; format: cell-based; conditions: 0.5 μM of Hoechst 33342, ± 10 μM of Lapatinib, 120 min
T4 sequence (Q9UNQ0 1-655 F439Y): T1 sequence (Q9UNQ0 1-655 F439W) with W439Y

F439Y-ABCG2 [4] = target: T4, F439Y-ABCG2; assay: Membrane thermal shift, MEF membrane vesicles, F439Y; format: binding; conditions: 10 μM of Hoechst 33342, 60 min at 37°C
N436A = conditions: ref 11 (Manolaridis et al); cited from earlier work
F439A = conditions: ref 11 (Manolaridis et al); cited from earlier work

Compound | transport of substrate by F439W-ABCG2 (F439W-ABCG2 [1]) | thermal stabilization of F439W-ABCG2 by ligand (F439W-ABCG2 [2]) | transport of substrate by F439A-ABCG2 (F439A-ABCG2) | thermal stabilization of WT-ABCG2 by ligand (WT-ABCG2) | transport of substrate by F439Y-ABCG2 (F439Y-ABCG2 [3]) | thermal stabilization of F439Y-ABCG2 by ligand (F439Y-ABCG2 [4]) | transport of substrate by N436A (N436A) | transport of substrate by F439A (F439A)
CCOc1ccc(-c2nc3ccc(-c4nc5ccc(N6CCN(C)CC6)cc5[nH]4)cc3[nH]2)cc1 [Hoechst 33342] | transport activity similar to WT-ABCG2 | stabilized | incapable of transporting; also recorded: no net ABCG2 mediated transport | stabilized | transport activity similar to WT-ABCG2 | stabilized | – | –
C[C@]12CC[C@@H]3c4ccc(OS(=O)(=O)O)cc4CC[C@H]3[C@@H]1CCC2=O [estrone-3-sulfate] | – | – | – | – | – | – | incapable | could not transport
